From PubChem BioAssay (NCI)
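1) Cells in 96-well plates. 2) Compound, 48 h, 5 concentrations. 3) Linear interpolation between surrounding doses. 4) Unreached endpoint = highest concentration. Definition used: TGI = concentration required for complete inhibition of growth.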

Experiments:
Assay in all cases: inhibition of tumour cell growth, NCI panel, 48 h
PC-3 prostate = system: PC-3 prostate
HS 578T breast = system: HS 578T breast
SW-620 colon = system: SW-620 colon
MDA-MB-231 breast = system: MDA-MB-231 breast
CAKI-1 renal = system: CAKI-1 renal
MOLT-4 leukemia = system: MOLT-4 leukemia
UACC-257 melanoma = system: UACC-257 melanoma
SN12C renal = system: SN12C renal
SNB-19 CNS = system: SNB-19 CNS
HCT-116 colon = system: HCT-116 colon
786-0 renal = system: 786-0 renal

SMILES	TGI (PC-3 prostate) [µM]	TGI (HS 578T breast) [µM]	TGI (SW-620 colon) [µM]	TGI (MDA-MB-231 breast) [µM]	TGI (CAKI-1 renal) [µM]	TGI (MOLT-4 leukemia) [µM]	TGI (UACC-257 melanoma) [µM]	TGI (SN12C renal) [µM]	TGI (SNB-19 CNS) [µM]	TGI (HCT-116 colon) [µM]	TGI (786-0 renal) [µM]
COc1cc(/C=C2\CCc3cc(OC)c(OC)cc3C2=O)cc(OC)c1	> 100	> 100	> 100	> 100	> 100	> 100	> 100	38.2	> 100	> 42.3	48.7
CC1(C)OC[C@@]2([C@@H]3CC[C@@H](C3)C2(C)C)N1O	> 100	> 100	> 100	> 100	> 100	> 100	> 100	> 100	> 100	> 100	> 100
CC(=O)NC1CCC(NC(=O)OC(C)(C)C)C(NC(=O)OC(C)(C)C)C1 (stereo not given)	> 100	> 100	> 100	> 100	> 100	> 100	> 100	> 100	> 100	> 100	> 100
CCOC(=O)NC(N(C)C(C(C)C)P(=O)(OCC)OCC)(C(F)(F)F)C(F)(F)F (stereo not given)	> 100	> 100	> 100	> 100	> 100	> 100	> 100	> 100	> 100	> 100	> 100
COC(=O)CC1(O)C(C=C(C)C)C(C(=O)OC)C(=O)C(C(=O)OC)C1C(=O)OC (stereo not given)	> 100	> 100	> 100	> 100	> 100	> 100	> 100	> 100	> 100	> 100	> 100
CCC(/C=C/c1ccccc1)=N\NC(=S)N/N=C(/C=C/c1ccccc1)CC	> 100	> 100	> 100	> 100	> 100	> 100	> 100	> 100	> 100	> 100	> 100
CC1(C)N=C(N)N=C(N)N1c1ccc(CCCCc2ccc(Cl)cc2Cl)cc1	3.27	22.9	12.9	16.6	9.08	> 100	8.65	12.7	11	15.1	15.3
CCOC(=O)C1(Cc2ccccc2)CCN(C(=O)c2ccccc2)C2C1C2(Cl)Cl (stereo not given)	50.1	71.5	> 100	43.9	75	52.9	36.3	32.4	> 100	30	44.2
O=C(c1ccco1)N1CCN(C(=O)c2ccco2)C1=S	17.5	> 100	24.7	25.4	16.7	24.5	23.3	16.4	> 79.5	23.2	12.8
Cn1c2c(c3ccccc31)CC(=O)N1CCCCC1C21OCCO1 (stereo not given)	> 100	> 100	> 100	> 100	> 100	> 100	> 100	> 100	> 100	> 100	> 100
